Test results from article PMC7699649 (Communications Biology, 2020).
No end group written: not given here.

How the values were obtained:
[1] = system: Acinetobacter baumannii ATCC 17978; settings: Supplementary Table 3; medium not stated; at least three biological replicates
Description: (§1) The antibacterial activity of the peptides was assessed through a modified twofold broth microdilution assay with modal MICs generated from at least three biological replicate experiments[20],[25]. The method broadly followed EUCAST methodology, with non-cation-adjusted Mueller Hinton or RPMI replacing cation-adjusted Mueller Hinton. Peptides and antibiotics were diluted in a twofold dilution in media down a 96 well plate. Bacteria were then added, back-diluted from an overnight culture, at a starting concentration of 5 × 10^5 CFU/ml. Plates were incubated, static at 37 C, for 20 h and the OD600 was determined using a Clariostar plate reader (BMG Labtech). […] Synergy was measured using standard microdilution checkerboard assays under the same conditions as the MICs[54]. Twofold dilution series of each peptide or antibiotic were prepared in separate 96 well plates and then combined into one before addition of bacteria. The growth/no growth interface was determined using the same definition as the MIC. The fractional inhibitory concentration was calculated from the most synergistic well on the plate for three independent repeats, and presented as the average +/− standard deviation. FIC is calculated as (MIC of compound A in combination with B/MIC of compound A alone) + (MIC of compound B in combination with A/MIC of compound B alone). MICs were determined on the same plates as the FICs to increase reproducibility.

[2] = system: Acinetobacter baumannii AYE; settings: Supplementary Table 3; medium not stated; at least three biological replicates
Description: as §1

[3] = system: EMR Staphylococcus aureus-15 NCTC 13616; settings: Supplementary Table 3; medium not stated; at least three biological replicates
Description: as §1

[4] = system: EMR Staphylococcus aureus-16 NCTC 13277; settings: Supplementary Table 3; medium not stated; at least three biological replicates
Description: as §1

Klebsiella pneumoniae M6 = settings: Supplementary Table 3; medium not stated; at least three biological replicates
Description: as §1

[5] = system: Klebsiella pneumoniae NCTC 13368; settings: Supplementary Table 3; medium not stated; at least three biological replicates
Description: as §1

[6] = system: MS Staphylococcus aureus ATCC 9144; settings: Supplementary Table 3; medium not stated; at least three biological replicates
Description: as §1

[7] = system: Pseudomonas aeruginosa NCTC 13437; settings: Supplementary Table 3; medium not stated; at least three biological replicates
Description: as §1

[8] = system: Pseudomonas aeruginosa PAO1; settings: Supplementary Table 3; medium not stated; at least three biological replicates
Description: as §1

[9] = system: VR Enterococcus faecium NCTC 12204; settings: Supplementary Table 3; medium not stated; at least three biological replicates
Description: as §1

[10] = system: VS Enterococcus faecalis NCTC 775; settings: Supplementary Table 3; medium not stated; at least three biological replicates
Description: as §1

[11] = system: Escherichia coli NCTC 12923; settings: Supplementary Table 3; medium not stated; at least three biological replicates
Description: as §1

human red blood cells = experiment: Haemolysis assay; format: cell-based; settings: human red blood cells in PBS, 1 h 37 °C, OD550, relative to 0.1% Triton-X-100; for concentration at which 10% haemolysis is achieved: three biological replicates
Description: Haemolysis was tested by incubating titrations of AMPs in PBS with freshly collected human red blood cells for 1 h at 37 °C. Control wells were treated with 0.1% Triton-X-100 to ensure complete lysis, or PBS-only to represent no lysis. Samples were spun down to remove non-lysed cells and the OD550 of the supernatant was measured using a Clariostar plate reader. The percentage of haemolysis was calculated as % haemolysis = (AP − AB)/(AC − AB) × 100, where AP is the absorbance value for a known peptide concentration, AC is the absorbance of the 0.1% Triton-X-100 control, AB is the absorbance of the PBS control. Data presented are averages and standard error from three biological replicate experiments.

Antibiogram, antibiotic concentration (MIC) [1] [µg/mL] | Antibiogram, antibiotic concentration (MIC) [2] [µg/mL] | Antibiogram, antibiotic concentration (MIC) [3] [µg/mL] | Antibiogram, antibiotic concentration (MIC) [4] [µg/mL] | Antibiogram, antibiotic concentration (MIC) (Klebsiella pneumoniae M6) [µg/mL] | Antibiogram, antibiotic concentration (MIC) [5] [µg/mL] | Antibiogram, antibiotic concentration (MIC) [6] [µg/mL] | Antibiogram, antibiotic concentration (MIC) [7] [µg/mL] | Antibiogram, antibiotic concentration (MIC) [8] [µg/mL] | Antibiogram, antibiotic concentration (MIC) [9] [µg/mL] | Antibiogram, antibiotic concentration (MIC) [10] [µg/mL] | Antibiogram, antibiotic concentration (MIC) [11] [µg/mL] | Compound | haemolysis at the highest concentration tested 400 µg/ml (human red blood cells) | concentration at which 10% haemolysis is achieved (human red blood cells) [µg/mL]
< 0.5 | > 128 | 128 | 8 | < 0.5 | 512 | 16 | > 128 | 1 | > 128 | 32 |  | CC(C)(O/N=C(\C(=O)N[C@@H]1C(=O)N2C(C(=O)[O-])=C(C[n+]3ccccc3)CS[C@H]12)c1csc(N)n1)C(=O)O [Ceftazidime] |  | 
0.5 | 128 | 64 | 128 | < 0.5 | 0.5 | 1 | 64 | 0.5 | 1 | 2 | ≤ 0.125 | O=C(O)c1cn(C2CC2)c2cc(N3CCNCC3)c(F)cc2c1=O [Ciprofloxacin] |  | 
0.5 | > 512 | 0.25 | 0.25 | 0.25 | 4 | 0.25 | 256 | 4 | 4 | 4 | 1 | CNC(C)C1CCC(N)C(OC2C(N)CC(N)C(OC3OCC(C)(O)C(NC)C3O)C2O)O1 (centres unmarked) [Gentamicin] |  | 
4 | 64 | 0.5 | 0.25 | 8 | 64 | 0.25 to 0.5 | 64 | 2 | 64 | 4 | 16 | NC[C@H]1O[C@H](O[C@H]2[C@H](O)[C@@H](O[C@H]3O[C@H](CO)[C@@H](O)[C@H](N)[C@H]3O)[C@H](N)C[C@@H]2N)[C@H](N)C[C@@H]1O [Tobramycin] |  | 
 |  |  |  |  |  |  |  |  |  |  |  | GWGSFFKKAAHAGKHAGKAALTHYL-NH2 [Pleurocidin-VA] | Neither pleurocidin-VA nor D-pleurocidin-VA induce detectable haemolysis | 
 |  |  |  |  |  |  |  |  |  |  |  | GWGSFFKKAAHVGKHVGKAALTHYL-NH2 [Pleurocidin, reference compound] | 50% | 120
 |  |  |  |  |  |  |  |  |  |  |  | GWGSFFRRAAHVGRHVGRAALTHYL-NH2 [Pleurocidin-KR] |  | 192

Compound | Antibiogram, antibiotic concentration (MIC) [1] [µg/mL] | Antibiogram, antibiotic concentration (MIC) [2] [µg/mL] | Antibiogram, antibiotic concentration (MIC) [3] [µg/mL] | Antibiogram, antibiotic concentration (MIC) [4] [µg/mL] | Antibiogram, antibiotic concentration (MIC) (Klebsiella pneumoniae M6) [µg/mL] | Antibiogram, antibiotic concentration (MIC) [5] [µg/mL] | Antibiogram, antibiotic concentration (MIC) [6] [µg/mL] | Antibiogram, antibiotic concentration (MIC) [7] [µg/mL] | Antibiogram, antibiotic concentration (MIC) [8] [µg/mL] | Antibiogram, antibiotic concentration (MIC) [9] [µg/mL] | Antibiogram, antibiotic concentration (MIC) [10] [µg/mL] | Antibiogram, antibiotic concentration (MIC) [11] [µg/mL] | haemolysis at the highest concentration tested 400 µg/ml (human red blood cells) | concentration at which 10% haemolysis is achieved (human red blood cells) [µg/mL]
Colistin | 1 | 1 | > 128 |  | 2 | 1 |  | 4 | 2 |  |  | 0.0625 |  | 
